Some test systems named below: HOP-92 NSCLC; SNB-19 CNS; HCT-116 colon; KM12 colon; K-562 leukemia; HOP-62 NSCLC; NCI-H226 lung; HCC-2998 colon; M14 melanoma.
What all share (test): growth of human tumour cells (NCI), 48 h

Molecules are shown by their SMILES. Values joined by “and” are separate entries in the source; they are usually repeats but may differ in a detail not shown here. Identical values can stand only once.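 48-hour exposure; five concentrations; linearly interpolated endpoints. The concentration for 50% growth inhibition is given as GI50. TGI: concentration producing complete growth inhibition.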

Take `O=C(O)NC(c1ccccc1)C(NC(=O)c1ccccc1)c1ccccc1` (stereo unspecified): the TGI in the assay with HOP-92 NSCLC, in the assay with SNB-19 CNS, in the assay with HCT-116 colon, in the assay with KM12 colon, in the assay with K-562 leukemia and in the assay on HOP-62 NSCLC was more than 100 µM in each case.
For `CCOC(=O)Cc1ccc2c(c1O)C(=O)c1c(ccc(CC(=O)OCC)c1O)C2=O`, the TGI in the assay with HOP-92 NSCLC, in the assay on SNB-19 CNS, in the assay on NCI-H226 lung, in the assay with HCC-2998 colon, in the assay on HCT-116 colon and in the assay on KM12 colon was more than 100 µM throughout. In addition, the TGI with K-562 leukemia, in the assay on M14 melanoma and with HOP-62 NSCLC was more than 100 µM throughout.
`O=C(c1ccccc1)c1c(-c2ccccc2)sc2nc3ccccc3nc12`: the TGI in the assay with HOP-92 NSCLC, with SNB-19 CNS, in the assay on NCI-H226 lung, with HCC-2998 colon, in the assay with HCT-116 colon and in the assay on KM12 colon was more than 100 µM each time. The TGI in the assay with K-562 leukemia, with M14 melanoma and in the assay on HOP-62 NSCLC was more than 100 µM each time.
`CC(=O)c1cccc(C)c1C(=O)O`: the TGI with SNB-19 CNS, with NCI-H226 lung, with HCC-2998 colon, with HCT-116 colon, with KM12 colon and in the assay with K-562 leukemia was more than 100 µM throughout. Moreover, the TGI with M14 melanoma and in the assay with HOP-62 NSCLC was more than 100 µM in each case.
`CCOC(=O)/C(=C\c1ccc(N(CCC#N)CCC#N)cc1)NC(=O)c1cc([N+](=O)[O-])ccc1Cl`: the TGI in the assay on SNB-19 CNS, with NCI-H226 lung, with HCC-2998 colon, in the assay on HCT-116 colon, in the assay with KM12 colon and in the assay on K-562 leukemia was more than 100 µM each time. Moreover, the TGI in the assay on M14 melanoma and in the assay on HOP-62 NSCLC was more than 100 µM throughout.
For the compound `COc1cc(OC)c(SSCCCCS(=O)O)c(OC)c1`, the TGI with SNB-19 CNS was determined as 34.1 µM; in the assay with HCC-2998 colon, 42.4 µM; in the assay with HCT-116 colon it was 29.9 µM; with KM12 colon, 29.4 µM; with K-562 leukemia, 89.3 µM; in the assay with M14 melanoma, 27.5 µM. The same compound gave a TGI in the assay on HOP-62 NSCLC of 67 µM.
On to `CC(=O)OC1CCn2nnc(CO)c21` (stereo unspecified), for which the TGI in the assay with HOP-92 NSCLC, in the assay on SNB-19 CNS, with NCI-H226 lung, in the assay with HCC-2998 colon, with HCT-116 colon and in the assay with KM12 colon was more than 100 µM throughout. For the same compound, the TGI in the assay with K-562 leukemia is more than 100 µM.
On to `CC(=O)CC(N)=O`, for which the TGI in the assay with HOP-92 NSCLC, with SNB-19 CNS, in the assay with NCI-H226 lung, with HCC-2998 colon, in the assay with HCT-116 colon and in the assay with KM12 colon was more than 100 µM in each case. For the same compound, the TGI in the assay with K-562 leukemia, in the assay with M14 melanoma and with HOP-62 NSCLC was more than 100 µM each time.
For `COc1cc(-c2ccc(-c3ccc(C(=N)N)nc3)s2)cc(OC)c1OC`, the GI50 is 1.91 µM in the assay with HOP-92 NSCLC; 4.73 µM in the assay on SNB-19 CNS; 10.8 µM with NCI-H226 lung; 2 µM with HCC-2998 colon; 1.47 µM in the assay on HCT-116 colon; 2.78 µM in the assay on KM12 colon. Also, the values for the GI50 in the assay with K-562 leukemia, with M14 melanoma and in the assay with HOP-62 NSCLC were 1.39 µM, 1.66 µM and 2.79 µM, respectively. Moreover, the TGI in the assay on HOP-92 NSCLC was 8.37 µM; with SNB-19 CNS, 16.3 µM; in the assay on NCI-H226 lung it was 31.1 µM; with HCC-2998 colon it was 3.9 µM; in the assay on HCT-116 colon it was 2.87 µM; in the assay with KM12 colon, 10.5 µM. In addition, the TGI came to 4.46 µM in the assay with K-562 leukemia, 3.33 µM in the assay on M14 melanoma and 11.5 µM in the assay on HOP-62 NSCLC.
With `CC1=C(C(=O)Nc2cc(=O)n(C)c(=O)n2C)C(c2cccc([N+](=O)[O-])c2)C(C(=O)Nc2cc(=O)n(C)c(=O)n2C)=C(C)N1`, the TGI in the assay with HOP-92 NSCLC, in the assay on SNB-19 CNS, with NCI-H226 lung, in the assay with HCC-2998 colon, in the assay on KM12 colon and in the assay on K-562 leukemia was more than 100 µM throughout. For the same compound, the TGI with M14 melanoma and with HOP-62 NSCLC was more than 100 µM in each case.
Turning to `CN1CC(=O)N(C)c2ncn(Cc3ccccc3)c2C1=O`, the TGI with SNB-19 CNS, in the assay with HCC-2998 colon, in the assay with KM12 colon, in the assay on K-562 leukemia and in the assay on M14 melanoma was more than 100 µM in each case.
In the case of `C=C(C#N)C1OCC2OC(C)(C)OC21` (stereo unspecified), the TGI with HOP-92 NSCLC is 43.3 µM; with SNB-19 CNS, more than 100 µM; in the assay on HCC-2998 colon, 83.6 µM; with HCT-116 colon, 38.4 µM; with KM12 colon, more than 100 µM; in the assay with K-562 leukemia, 72 µM. Also, the TGI in the assay with M14 melanoma is 30.5 µM; in the assay with HOP-62 NSCLC, more than 100 µM.
Turning to `CC(=O)[CH-]C(=O)c1ccccc1.CC(=O)[CH-]C(=O)c1ccccc1.CC(C)CCCC(C)[C@H]1CCC2[C@@H]3CC=C4C[C@@H]([O-])CC[C@]4(C)C3CC[C@@]21C.CC(C)CCCC(C)[C@H]1CCC2[C@@H]3CC=C4C[C@@H]([O-])CC[C@]4(C)C3CC[C@@]21C.[Ti+4]` (stereo partly specified), the GI50 with HOP-92 NSCLC, in the assay on NCI-H226 lung, in the assay with HCC-2998 colon, with HCT-116 colon, with K-562 leukemia and in the assay on M14 melanoma was more than 100 µM each time. In the assay with HOP-62 NSCLC, the GI50 is more than 100 µM. For the same compound, the TGI with HOP-92 NSCLC, in the assay with NCI-H226 lung, in the assay with HCC-2998 colon, in the assay with HCT-116 colon, in the assay on K-562 leukemia and with M14 melanoma was more than 100 µM throughout. Also, in the assay with HOP-62 NSCLC, the TGI was more than 100 µM.
Regarding `COc1cc(Nc2nc3ccccc3nc2NS(=O)(=O)c2ccc(NC(=O)c3ccc(C)c(OC)c3)cc2)cc(OC)c1`, the GI50 is 3.14 µM and 19.8 µM and 2.3 µM in the assay on SNB-19 CNS; 3.62 µM and 20 µM and 2.35 µM in the assay on KM12 colon; 5.34 µM and 18.7 µM and > 5.29 µM with K-562 leukemia. Moreover, the TGI in the assay on SNB-19 CNS was 31 µM and > 100 µM and > 10 µM; with HCC-2998 colon, > 100 µM and 37.7 µM and > 8.5 µM; with HCT-116 colon it was more than 100 µM; in the assay with KM12 colon it was more than 100 µM; in the assay with K-562 leukemia, > 100 µM and 46.4 µM and > 10 µM; with M14 melanoma it was > 100 µM and 94 µM and > 4.68 µM. Moreover, the TGI in the assay on HOP-62 NSCLC was 25.9 µM and > 100 µM and > 9.23 µM.
